What is called IC50 is the concentration that gives 50% inhibition.

The record followed here is patent US20200140383A1, “2-(4-CHLOROPHENOXY)-N-((1 -(2-(4-CHLOROPHENOXY)ETHYNAZETIDIN-3-YL)METHYL)ACETAMIDE DERIVATIVES AND RELATED COMPOUNDS AS ATF4 INHIBITORS FOR TREATING CANCER AND OTHER DISEASES” (GlaxoSmithKline Intellectual Property Development Limited, priority 2017, published 2020).

This test concerns ATF4 translation (SH-SY5Y-ATF4-NanoLuc cells). Nature of the test: ATF4 cell based assay (ATF4 5'-UTR NanoLuc luciferase reporter, Thapsigargin induced stress). The note with it: Thapsigargin 200-300 nM for 14-18 hours, average of two or more experimental runs, read-out: average ATF4 pathway inhibitory activity (IC50). An excerpt:
The ATF4 reporter assay measures the effect of Thapsigargin induced cellular stress on ATF4 expression. For this reporter assay, a stable cell line was created by transfecting SH-SY5Y cells with a plasmid containing the NanoLuc® luciferase gene fused to the 5′-UTR of ATF4, under the control of the CMV promoter. The ATF4 5′-UTR contains two open reading frames which mediate the cellular stress-dependent translation of the reporter gene. Clones stably expressing the reporter construct were isolated and selected based on the luminescence response to thapsigargin and inhibition of this signal by test compounds. Briefly, SH-SY5Y-ATF4-NanoLuc cells were challenged with Thapsigargin for 14-18 hours to determine the stress effect with or without test compounds.
Cells were propagated in growth media consisting of 90% DMEM F12 (InVitrogen #11320-033), 10% Fetal Bovine Serum (Gibco #10438-026), 5 mM Glutamax (Gibco #35050-061), 5 mM Hepes, (Gibco #15630-080), and 0.5 mg/ml Geneticin (Gibco #10131-027). Cells were prepared for the assay by removing all media from cells, washing the plated cells with phosphate buffered saline, and detached by adding a solution comprised of 10% Tryple express solution (InVitrogen12604-021) and 90% enzyme-free cell dissociation buffer HANKS base (Gibco 13150-016). The trypsin was deactivated by adding assay media comprised of 90% phenol-red free DMEM F12 (InVitrogen, 11039), 10% Fetal Bovine Serum (Gibco #10438-026), (5 mM Glutamax (Gibco #35050-061), 5 mM Hepes, (Gibco #15630-080), and 0.5 mg/ml Geneticin (Gibco #10131-027). Suspended cells were spun down at 300 g for 5 min, the supernatant was removed and the cell pellet was suspended in warm media (30-37° C.) comprised as above but without 10% Fetal Bovine Serum to a concentration of 1e6 cells/mi.
Assay plates were prepared by adding 250 nL of compound stock solution in 100% DMSO to each well, followed by dispensing 20 microliters/well cell suspension to deliver 15-20 k cell/well. Cells were incubated for 1 hour at 37° C. Then, 5 μL of 1.5 μM or 1 μM of Thapsigargin (final concentration: 200-300 nM) was added to each well of cells. Assay plates containing cells were incubated for 14-18 hours at 37° C.
The measurement of luciferase produced by the ATF4 constructs was measured as follows. Aliquots of the Nano-Glo reagent (Nano-Glo® Luciferase Assay Substrate, Promega, N113, Nano-Glo® Luciferase Assay Buffer, Promega, N112 (parts of Nano-Glo® Luciferase Assay System, N1150) were brought to room temperature, the substrate and buffer were mixed according to manufacturer's instructions. The cell plates were equilibrated to room temperature. 25 microliters/well of the mixed Nano-Glo reagent were dispensed into assay wells and pulse spun to settle contents and the plate was sealed with film. The plates were incubated at room temperature for 1 hour before detecting luminescence on an EnVision® plate reader.

Where “and” joins values, the source holds several entries; their conditions need not be identical. Identical values can stand only once.

`O=C(COc1ccc(Cl)cc1)NCC1CN(CCOc2ccc(Cl)cc2)C1` [Example 11, 2-(4-chlorophenoxy)-N-((1-(2-(4-chlorophenoxy)ethyl)azetidin-3-yl)methyl)acetamide]: the IC50 is < 0.1 µM and 0.078 µM. For the compound `O=C(COc1ccc(Cl)cc1)NCCC1CN(C(=O)COc2ccc(Cl)cc2)C1` [Example 4, 2-(4-chlorophenoxy)-N-(2-(1-(2-(4-chlorophenoxy)acetyl)azetidin-3-yl)ethyl)acetamide], the IC50 lay in the range of 0.1 to 1 µM. On to `O=C(COc1ccc(Cl)cc1)NCC1CN(c2cccnc2)C1` [Example 23, 2-(4-chlorophenoxy)-N-((1-(pyridin-3-yl)azetidin-3-yl)methyl)acetamide], for which the IC50 lay in the range of 1 to 8 µM. `O=C(COc1ccc(Cl)cc1)NCC1CN(C(=O)C2CC2c2ccc(Cl)cc2)C1` (centres unmarked) [Example 3, 2-(4-chlorophenoxy)-N-((1-(2-(4-chlorophenyl)cyclopropane-1-carbonyl)azetidin-3-yl)methyl)acetamide]: the IC50 was 0.1 to 1 µM.

As for `COc1ccc(N2CC(CNC(=O)COc3ccc(Cl)cc3)C2)cc1` [Example 22, 2-(4-chlorophenoxy)-N-((1-(4-methoxyphenyl)azetidin-3-yl)methyl)acetamide], the IC50 was in the range of 1 to 8 µM.

For `O=C(COc1ccc(Cl)cc1)NCC1CN(C(CCOc2ccc(Cl)cc2)C(=O)O)C1` (centres unmarked) [Example 21, 4-(4-chlorophenoxy)-2-(3-((2-(4-chlorophenoxy)acetamido)methyl)azetidin-1-yl) butanoic acid], the IC50 lay in the range of 0.1 to 1 µM. With `O=C(COc1ccc(Cl)cc1)NCC1CN(C(=O)COc2ccc(Cl)cc2)C1` [Example 1, 2-(4-chlorophenoxy)-N-((1-(2-(4-chlorophenoxy)acetyl)azetidin-3-yl)methyl)acetamide], the IC50 lay in the range of 0.1 to 1 µM.

Regarding `O=C(COc1ccc(Cl)cc1)NCC1CN(CCCc2ccc(Cl)cc2)C1` [Example 14, 2-(4-chlorophenoxy)-N-((1-(3-(4-chlorophenyl)propyl)azetidin-3-yl)methyl)acetamide], the IC50 is below 0.1 µM. `O=C(NCC1CN(CCCOc2ccc(Cl)cc2)C1)C1CCc2cc(Cl)ccc2O1` (centres unmarked) [Example 13, 6-chloro-N-((1-(3-(4-chlorophenoxy)propyl)azetidin-3-yl)methyl)chromane-2-carboxamide]: the IC50 was below 0.1 µM. Consider `O=C(COc1ccc(Cl)cc1)NCC1CN(C(=O)OCCOc2ccc(Cl)cc2)C1` [Example 17, 2-(4-chlorophenoxy)ethyl 3-((2-(4-chlorophenoxy)acetamido)methyl)azetidine-1-carboxylate], for which the IC50 is below 0.1 µM. For the compound `O=C(COc1ccc(Cl)cc1)NCC1(O)CN(CCCOc2ccc(Cl)cc2)C1` [Example 10, 2-(4-chlorophenoxy)-N-((1-(3-(4-chlorophenoxy)propyl)-3-hydroxyazetidin-3-yl)methyl)acetamide], the IC50 is below 0.1 µM. Take `O=C(COc1ccc(Cl)cc1)NCC1(F)CN(CCCOc2ccc(Cl)cc2)C1` [Example 8, 2-(4-chlorophenoxy)-N-((1-(3-(4-chlorophenoxy)propyl)-3-fluoroazetidin-3-yl)methyl)acetamide]: the IC50 is 0.1 to 1 µM. Next, `CC(C)(C)OCC(=O)N1CC(CNC(=O)COc2ccc(Cl)cc2)C1` [Example 5, N-((1-(2-(tert-butoxy)acetyl)azetidin-3-yl)methyl)-2-(4-chlorophenoxy)acetamide]: 1 to 8 µM; `CC(C)(C)COC(=O)N1CC(CNC(=O)COc2ccc(Cl)cc2)C1` [Example 19, neopentyl 3-((2-(4-chlorophenoxy)acetamido)methyl)azetidine-1-carboxylate]: 1 to 8 µM and 1.34 µM; `O=C(COc1ccc(Cl)cc1)NCC1CN(C(=O)NCc2ccc(Cl)cc2)C1` [Example 20, N-(4-chlorobenzyl)-3-((2-(4-chlorophenoxy)acetamido)methyl)azetidine-1-carboxamide]: 1 to 8 µM.

Turning to `O=C(COc1ccc(Cl)cc1)NCCC1CN(CCCc2ccc(Cl)cc2)C1` [Example 15, 2-(4-chlorophenoxy)-N-(2-(1-(3-(4-chlorophenyl)propyl)azetidin-3-yl)ethyl)acetamide], the IC50 is 0.1 to 1 µM. For the compound `O=C(COc1ccc(Cl)cc1)NCC1CN(CCCOc2ccc(Cl)cc2)C1` [Example 6, 2-(4-chlorophenoxy)-N-((1-(3-(4-chlorophenoxy)propyl)azetidin-3-yl)methyl)acetamide], the IC50 is below 0.1 µM. As to `O=C(COc1ccc(Cl)cc1)NCC1(F)CN(CCOc2ccc(Cl)cc2)C1` [Example 7, 2-(4-chlorophenoxy)-N-((1-(2-(4-chlorophenoxy)ethyl)-3-fluoroazetidin-3-yl)methyl)acetamide], the IC50 fell in the range of 1 to 8 µM. Consider `O=C(COc1ccc(Cl)cc1)NCC1CN(C(=O)CCc2ccc(Cl)cc2)C1` [Example 2, 2-(4-chlorophenoxy)-N-((1-(3-(4-chlorophenyl)propanoyl)azetidin-3-yl)methyl)acetamide], for which the IC50 is 0.1 to 1 µM. For `O=C(COc1ccc(Cl)cc1)NC1CN(CCCOc2ccc(Cl)cc2)C1` [Example 9, 2-(4-chlorophenoxy)-N-(1-(3-(4-chlorophenoxy)propyl)azetidin-3-yl)acetamide], the IC50 is 0.1 to 1 µM and 0.106 µM.

As for `O=C(COc1ccc(Cl)cc1)NCC1CN(C(=O)OCCc2ccc(Cl)cc2)C1` [Example 16, 4-chlorophenethyl 3-((2-(4-chlorophenoxy)acetamido)methyl)azetidine-1-carboxylate], the IC50 was 0.1 to 1 µM. As to `O=C(COc1ccc(Cl)cc1)NCCC1CN(CCOc2ccc(Cl)cc2)C1` [Example 12, 2-(4-chlorophenoxy)-N-(2-(1-(2-(4-chlorophenoxy)ethyl)azetidin-3-yl)ethyl)acetamide], the IC50 is below 0.1 µM.

As for `O=C(COc1ccc(Cl)cc1)NCC1CN(C(=O)OCc2ccc(Cl)cc2)C1` [Example 18, 4-chlorobenzyl 3-((2-(4-chlorophenoxy)acetamido)methyl)azetidine-1-carboxylate], the IC50 is below 0.1 µM.
